Data from US20260256143A1, “HERBICIDAL COMPOSITION AND METHOD FOR CONTROLLING WEEDS” (Enko Chem, Inc., priority 2023, published 2026).
Like-named read-outs stand apart in the source and are kept apart here.

Legend:
AMATU [1] = assay: Greenhouse post-emergence foliar test (Example 72); type: in vivo, Amaranthus rudis; settings: Amaranthus tuberculatus, 336 h, read-out: % Visual growth inhibition (AMATU)
Description: (§1) Compound 1 was tested at several doses for foliar weed control efficacy by itself or in combination with other herbicides.
(§2) The weed seeds were sown in 10″×20″ trays and propagated up to the transplanting stage which is 1-2 emerging leaves. One plant was then transplanted into 7×7×8 cm pots and sprayed with the compounds when plants reached the 3-4 true leaf stage for grass species or 10-15 cm for broadleaf species. The plants were propagated in a greenhouse with 26-28° C. day, 20-22° C. night temperature at 50-60%0 relative humidity and supplemental light using high pressure sodium grow lights when necessary. Three weeks after sowing, plants were sprayed with the test compound solution in a laboratory spray chamber fitted with 8003 even fan nozzle calibrated to deliver 187 L ha^−1 at 269 kPa. All treatments included the following inert ingredients in the final formulation; […] (AGRI-DEX®, Helena Agri), 2.5% Ammonium sulphate (w/v), and 0.1% Tween-20 (v/v). Plants were evaluated for percentage visual growth inhibition compared to treated control, 14 days after treatment (DAT).

ECHCG [2] = assay: Greenhouse post-emergence foliar test (Example 72); type: in vivo; settings: Echinochloa crus-galli, 336 h, read-out: % Visual growth inhibition (ECHCG)
Description: as §1, §2

AMAPA [3] = assay: Greenhouse pre-emergence residual test (Example 73); type: in vivo, Amaranthus palmeri; settings: 17-21 DAT
Description: (§3) Compound 1 was tested at several doses for residual weed control efficacy by itself or in combination as a tank mix with commercial herbicides. The following commercial products were used in tank mix with a 10% active emulsifiable concentrate formulation of Compound 1: S-metolachlor (Dual Magnum®, Syngenta), mesotrione (Callisto®, Syngenta), pyroxasulfone (Zidua® SC, BASF), metribuzin (Tricor DF™, United Phosphorus, Inc).
(§4) Accordingly, weed seeds were planted in 2-inch pots containing custom field soil mix (sandy loam with 3.3% organic matter, pH 7.0) and covered with a fine layer of the same soil. Three replicate pots were treated with each compound. Treatment consisting of the above formulation excluding active compound was applied as a treatment control (TC). Pots were treated with the test compound solution in a laboratory spray chamber fitted with 8003 even fan nozzles calibrated to deliver 187-200 L ha^−1 at 269 kPa. All treatments included the following inert ingredients in the final formulation; 1% Crop Oil Concentrate (v/v) (AGRI-DEX, Helena Agri) and 2.5% Ammonium sulphate (w/v). Compound 1 was incorporated into the soil by simulating rainfall equivalent to 0.2 mm using the same track sprayer. Subsequently, pots were irrigated from the bottom until weed control evaluation. Pots were placed back in the greenhouse and evaluated for percentage visual growth and germination inhibition compared to TC 17-21 days after treatment (DAT). Complete growth inhibition is represented by 100%.

AMATU [4] = assay: as above; type: in vivo, Amaranthus rudis; settings: 17-21 DAT
Description: as §3, §4

KCHSC = assay: as above; type: in vivo, Bassia scoparia; settings: 17-21 DAT
Description: as §3, §4

CHEAL [5] = assay: as above; type: in vivo, Chenopodium album; settings: 17-21 DAT
Description: as §3, §4

DIGSA = assay: as above; type: in vivo, Digitaria sanguinalis; settings: 17-21 DAT
Description: as §3, §4

ALOMY = assay: as above; type: in vivo, Alopecurus myosuroides; settings: 17-21 DAT
Description: as §3, §4

ECHCG [6] = assay: as above; type: in vivo, Echinochloa crus-galli; settings: 17-21 DAT
Description: as §3, §4

AMATU [7] = assay: Field test, post-emergence foliar application (Example 70); type: in vivo, Amaranthus rudis; settings: glyphosate 1120 g a.i./ha, 2 weeks after application
Description: (§5) Compound 1 and Compound 1 mixed with glyphosate were tested at different field locations to evaluate the herbicides efficacy for controlling weeds by post-emergence foliar application. All herbicide treatments were applied with a backpack CO2 pressurized sprayer at 190 L/ha volume. The applications were made after the weeds emerged and reached the 5 to 12 cm size range. Herbicide treatments included Compound 1 formulated as 10% emulsified concentrate, glyphosate as a commercial formulation (Roundup Power Max, Monsanto), or a mixture of Compound 1 and glyphosate products prepared as a “tank-mix” before the field application. All herbicide field spray solution included ammonium sulfate and concentrated crop oil adjuvant to a final solution concentration of 2% and 1% respectively. Different weeds species were assessed at the separate field locations. For each species, the herbicide efficacy to control weeds, assessed as % of dead plants relative to the untreated control plots, was evaluated at 2 weeks after the herbicide application to account for weed re-growth.

CHEAL [8] = assay: as above; type: in vivo, Chenopodium album; settings: glyphosate 1120 g a.i./ha, 2 weeks after application
Description: as §5

AMAPA [9] = assay: as above; type: in vivo, Amaranthus palmeri; settings: Loc 13; glyphosate 1120 g a.i./ha; 2 weeks after application
Description: as §5

ABUTH = assay: as above; type: in vivo, Abutilon theophrasti; settings: Loc 13; glyphosate 1120 g a.i./ha; 2 weeks after application
Description: as §5

SETFA = assay: as above; type: in vivo, Setaria faberi; settings: Loc 15; glyphosate 1120 g a.i./ha; 2 weeks after application
Description: as §5

Structure (SMILES): O=C(O)COc1ccc(Cl)cc1Cl [2,4-D acid, 2,4-dichlorophenoxyacetic acid]
- inhibition at 280 g/ha (AMATU [1]): 89%
- inhibition at 280 g/ha (ECHCG [2]): 10%

Structure (SMILES): CCc1cccc(C)c1N(C(=O)CCl)[C@@H](C)COC [S-metolachlor]
- Pre-emergence percent weed growth and germination inhibition AMAPA (AMAPA [3]; Dose 1000 g a.i./ha): 65%
- Pre-emergence percent weed growth and germination inhibition AMATU (AMATU [4]; Dose 1000 g a.i./ha): 80%
- Pre-emergence percent weed growth and germination inhibition KCHSC (KCHSC; Dose 1000 g a.i./ha): 57%
- Pre-emergence percent weed growth and germination inhibition CHEAL (CHEAL [5]; Dose 1000 g a.i./ha): 50%
- Pre-emergence percent weed growth and germination inhibition DIGSA (DIGSA; Dose 1000 g a.i./ha): 80%
- Pre-emergence percent weed growth and germination inhibition ALOMY (ALOMY; Dose 1000 g a.i./ha): 30%
- Pre-emergence percent weed growth and germination inhibition ECHCG (ECHCG [6]; Dose 1000 g a.i./ha): 93%

Structure (SMILES): COc1c(Cl)ccc(Cl)c1C(=O)O [dicamba, 3,6-dichloro-2-methoxybenzoic acid]
- inhibition at 280 g/ha (AMATU [1]; Dose 280 g a.i./ha, 14 DAT): 74%
- inhibition at 280 g/ha (ECHCG [2]; Dose 280 g a.i./ha, 14 DAT): 5%

Structure (SMILES): CP(=O)(O)CCC(N)C(=O)O (stereo not shown) [glufosinate]
- inhibition at 450 g/ha (AMATU [1]): 96%
- inhibition at 450 g/ha (ECHCG [2]): 41%

Structure (SMILES): O=C(O)CNCP(=O)(O)O [glyphosate]
- % dead AMATU (AMATU [7]; Loc 11): 88%
- % dead AMATU (AMATU [7]; Loc 12): 50%
- % dead AMATU (AMATU [7]; Loc 14): 32%
- % dead AMATU (AMATU [7]; Loc 15): 12%
- % dead CHEAL (CHEAL [8]; Loc 11): 88%
- % dead CHEAL (CHEAL [8]; Loc 14): 88%
- % dead AMAPA (AMAPA [9]): 13%
- % dead ABUTH (ABUTH): 85%
- % dead SETFA (SETFA): 100%
- inhibition at 1000 g/ha (AMATU [1]): 60%
- inhibition at 860 g/ha (ECHCG [2]): 84%

Structure (SMILES): CS(=O)(=O)c1ccc(C(=O)C2C(=O)CCCC2=O)c([N+](=O)[O-])c1 [mesotrione]
- inhibition at 105 g/ha (AMATU [1]; Dose 105 g a.i./ha, 14 DAT): 61%
- inhibition at 105 g/ha (ECHCG [2]; Dose 105 g a.i./ha, 14 DAT): 95%
- inhibition at 210 g/ha (AMAPA [3]; Amaranthus palmeri, pre-emergence, Dose 210 g a.i./ha, read-out: Pre-emergence percent weed growth and germination inhibition AMAPA): 53%
- inhibition at 210 g/ha (AMATU [4]; Amaranthus tuberculatus, pre-emergence, Dose 210 g a.i./ha, read-out: Pre-emergence percent weed growth and germination inhibition AMATU): 75%
- inhibition at 210 g/ha (KCHSC; Bassia scoparia, pre-emergence, Dose 210 g a.i./ha, read-out: Pre-emergence percent weed growth and germination inhibition KCHSC): 77%
- inhibition at 210 g/ha (CHEAL [5]; Chenopodium album, pre-emergence, Dose 210 g a.i./ha, read-out: Pre-emergence percent weed growth and germination inhibition CHEAL): 100%
- inhibition at 210 g/ha (DIGSA; Digitaria sanguinalis, pre-emergence, Dose 210 g a.i./ha, read-out: Pre-emergence percent weed growth and germination inhibition DIGSA): 82%
- inhibition at 210 g/ha (ALOMY; Alopecurus myosuroides, pre-emergence, Dose 210 g a.i./ha, read-out: Pre-emergence percent weed growth and germination inhibition ALOMY): 20%
- inhibition at 210 g/ha (ECHCG [6]; Echinochloa crus-galli, pre-emergence, Dose 210 g a.i./ha, read-out: Pre-emergence percent weed growth and germination inhibition ECHCG): 33%

Structure (SMILES): CSc1nnc(C(C)(C)C)c(=O)n1N [metribuzin]
- inhibition at 200 g/ha (AMAPA [3]; Amaranthus palmeri, pre-emergence, Dose 200 g a.i./ha, read-out: Pre-emergence percent weed growth and germination inhibition AMAPA): 20%
- inhibition at 200 g/ha (AMATU [4]; Amaranthus tuberculatus, pre-emergence, Dose 200 g a.i./ha, read-out: Pre-emergence percent weed growth and germination inhibition AMATU): 65%
- inhibition at 200 g/ha (KCHSC; Bassia scoparia, pre-emergence, Dose 200 g a.i./ha, read-out: Pre-emergence percent weed growth and germination inhibition KCHSC): 100%
- inhibition at 200 g/ha (CHEAL [5]; Chenopodium album, pre-emergence, Dose 200 g a.i./ha, read-out: Pre-emergence percent weed growth and germination inhibition CHEAL): 100%
- inhibition at 200 g/ha (DIGSA; Digitaria sanguinalis, pre-emergence, Dose 200 g a.i./ha, read-out: Pre-emergence percent weed growth and germination inhibition DIGSA): 13%
- inhibition at 200 g/ha (ALOMY; Alopecurus myosuroides, pre-emergence, Dose 200 g a.i./ha, read-out: Pre-emergence percent weed growth and germination inhibition ALOMY): 12%
- inhibition at 200 g/ha (ECHCG [6]; Echinochloa crus-galli, pre-emergence, Dose 200 g a.i./ha, read-out: Pre-emergence percent weed growth and germination inhibition ECHCG): 12%
